# Assay results published in ChEMBL document CHEMBL6120941, “Discovery of SIRT1-Activating Hydrogen Sulfide Donating Derivatives for Efficient Resistant of Myocardial Ischemic Injury” (J Med Chem, 2024).
# The source made the active and inactive calls. The rule behind the calls is not given here.
# Columns and labels:
# H9c2 [1] = test: Cardioprotective activity against CoCl2-induced cellular hypoxia injury in rat H9c2 cells assessed as increase in cell viability at 30 uM incubated for 24 hrs by CCK-8 assay; assay type: functional, cell-based
# H9c2 [2] = test: Cardioprotective activity against CoCl2-induced cellular hypoxia injury in rat H9c2 cells assessed as cell viability at 1.25 uM incubated for 24 hrs by CCK-8 assay (reference value: 51.80 +/- 2.58 %); assay type: functional; details: read-out: Activity
# H9c2 [3] = test: Cardioprotective activity against CoCl2-induced cellular hypoxia injury in rat H9c2 cells assessed as cell viability at 2.5 uM incubated for 24 hrs by CCK-8 assay (reference value: 51.80 +/- 2.58 %); assay type: functional; details: read-out: Activity
# H9c2 [4] = test: Cardioprotective activity against CoCl2-induced cellular hypoxia injury in rat H9c2 cells assessed as cell viability at 5 uM incubated for 24 hrs by CCK-8 assay (reference value: 51.80 +/- 2.58 %); assay type: functional; details: read-out: Activity
# [5] = Induction of H2S release in PBS at pH 7.4 measured upto 60 mins by methylene blue method; assay type: functional
# H9c2 [6] = test: Induction of H2S release in rat H9c2 cells incubated for 24 hrs by AzMC probe based analysis; assay type: functional, cell-based; details: dose 1.25-10 µM
# H9c2 [7] = test: Induction of H2S release in rat H9c2 cells incubated for 24 hrs by fluorescence based imaging analysis; assay type: functional, cell-based; details: dose 0.625-10 µM
# Rattus norvegicus [8] = test: Cardioprotective activity in myocardial ischemia Sprague-Dawley rat model assessed as improvement in tissue clearance at 10 to 30 mg/kg, IG treated for 7 days consecutively followed by ISO administration daily for 2 days consecutively by H and E/Masson staining based analysis; assay type: functional, organism-based; details: dose 10-30 mg/kg, time 9.0 day
# H9c2 [9] = test: Cardioprotective activity against CoCl2-induced cellular hypoxia injury in rat H9c2 cells assessed as ROS accumulation at 10 uM incubated for 24 hrs by DCFH-DA probe based analysis (reference value: 28.03 %); assay type: functional
# H9c2 [10] = test: Cardioprotective activity against CoCl2-induced cellular hypoxia injury in rat H9c2 cells assessed as mitochondrial membrane potential at 10 uM incubated for 24 hrs by JC-1 staining based analysis (reference value: 48.08 %); assay type: functional
# H9c2 [11] = test: Cardioprotective activity against CoCl2-induced cellular hypoxia injury in rat H9c2 cells assessed as mitochondrial membrane potential at 10 uM incubated for 24 hrs in presence of GSSG by JC-1 staining based analysis (reference value: 48.08 %); assay type: functional
# H9c2 [12] = test: Cardioprotective activity against CoCl2-induced cellular hypoxia injury in rat H9c2 cells assessed as increase in hypoxia-reduced ATP production in mitochondria at 5 to 10 uM incubated for 24 hrs by bioluminescence assay; assay type: functional, cell-based; details: dose 5-10 µM
# H9c2 [13] = test: Cardioprotective activity against CoCl2-induced cellular hypoxia injury in rat H9c2 cells assessed as reduction in apoptosis at 5 to 10 uM incubated for 24 hrs by flow cytometry; assay type: functional, cell-based; details: dose 5-10 µM
# H9c2 [14] = test: Cardioprotective activity against CoCl2-induced cellular hypoxia injury in rat H9c2 cells assessed as reduction in necrosis at 5 to 10 uM incubated for 24 hrs by flow cytometry; assay type: functional, cell-based; details: dose 5-10 µM
# H9c2 [15] = test: Cardioprotective activity against CoCl2-induced cellular hypoxia injury in rat H9c2 cells assessed as rate of necrosis at 10 uM incubated for 24 hrs in presence of GSSG by flow cytometry (reference value: 22.5 %); assay type: functional
# H9c2 [16] = test: Cardioprotective activity against CoCl2-induced cellular hypoxia injury in rat H9c2 cells assessed as reduction in hypoxia-induced apoptosis at 5 to 10 uM incubated for 24 hrs by Hoechst 33258 nuclear staining based analysis; assay type: functional, cell-based; details: dose 5-10 µM
# H9c2 [17] = test: Cardioprotective activity against CoCl2-induced cellular hypoxia injury in rat H9c2 cells assessed as improvement in nuclear shrinkage at 5 to 10 uM incubated for 24 hrs by Hoechst 33258 nuclear staining based analysis; assay type: functional, cell-based; details: dose 5-10 µM
# H9c2 [18] = test: Cardioprotective activity against CoCl2-induced cellular hypoxia injury in rat H9c2 cells assessed as inhibition of ROS-induced cell damage at 5 to 10 uM incubated for 24 hrs by fluorescence based analysis; assay type: functional; details: dose 5-10 µM
# H9c2 [19] = test: Cardioprotective activity against CoCl2-induced cellular hypoxia injury in rat H9c2 cells assessed as inhibition of CoCl2-induced morphological changes at 5 to 10 uM incubated for 24 hrs by fluorescence based analysis; assay type: functional, cell-based; details: dose 5-10 µM
# H9c2 [20] = test: Antioxidant activity against CoCl2-induced cellular hypoxia injury in rat H9c2 cells assessed as decrease in hypoxia-induced LDH release at 10 uM incubated for 24 hrs in presence of GSSG; assay type: functional, cell-based
# H9c2 [21] = test: Antioxidant activity against CoCl2-induced cellular hypoxia injury in rat H9c2 cells assessed as decrease in hypoxia-induced CK level at 5 to 10 uM incubated for 24 hrs; assay type: functional, cell-based; details: dose 5-10 µM
# H9c2 [22] = test: Upregulation of SIRT1 mRNA level in CoCl2-induced cellular hypoxia injury in rat H9c2 cells at 5 to 10 uM incubated for 24 hrs by qPCR analysis; assay type: functional, cell-based; details: dose 5-10 µM
# [23] = biological target: T1, NAD-dependent protein deacetylase sirtuin-1 (Rattus norvegicus) (UniProt A0A0G2JZ79); test: Activation of SIRT1 in CoCl2-induced cellular hypoxia injury in rat H9c2 cells at 5 to 10 uM incubated for 24 hrs by Western blot analysis; assay type: cell-based; details: filed as activator, dose 5-10 µM
# T1 sequence (whole entry): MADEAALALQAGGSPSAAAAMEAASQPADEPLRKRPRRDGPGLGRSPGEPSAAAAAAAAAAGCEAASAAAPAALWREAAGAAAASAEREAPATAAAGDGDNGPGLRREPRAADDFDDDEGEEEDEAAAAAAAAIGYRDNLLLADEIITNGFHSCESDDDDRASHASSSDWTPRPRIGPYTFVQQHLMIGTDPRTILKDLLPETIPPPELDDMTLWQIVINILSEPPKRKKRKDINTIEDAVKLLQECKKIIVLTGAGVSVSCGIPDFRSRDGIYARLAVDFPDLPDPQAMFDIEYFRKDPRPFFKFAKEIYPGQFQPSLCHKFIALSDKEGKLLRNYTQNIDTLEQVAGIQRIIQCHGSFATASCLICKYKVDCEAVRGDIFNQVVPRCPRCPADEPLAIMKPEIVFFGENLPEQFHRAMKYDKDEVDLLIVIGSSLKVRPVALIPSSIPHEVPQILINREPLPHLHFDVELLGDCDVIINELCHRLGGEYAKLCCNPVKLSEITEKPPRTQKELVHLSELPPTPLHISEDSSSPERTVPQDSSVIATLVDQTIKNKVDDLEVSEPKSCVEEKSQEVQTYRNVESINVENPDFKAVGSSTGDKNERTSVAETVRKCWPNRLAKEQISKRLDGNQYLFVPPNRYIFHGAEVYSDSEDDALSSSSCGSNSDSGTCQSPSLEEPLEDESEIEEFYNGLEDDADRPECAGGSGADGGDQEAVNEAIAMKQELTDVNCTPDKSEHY
# Rattus norvegicus [24] = test: Cardioprotective activity against myocardial ischemia Sprague-Dawley rat model assessed as increase in PGC1-alpha level in myocardial tissue at 10 to 30 mg/kg, IG treated for 7 days consecutively followed by ISO administration daily for 2 days consecutively by Western blot analysis; assay type: functional, organism-based; details: dose 10-30 mg/kg, time 9.0 day
# H9c2 [25] = test: Antioxidant activity against CoCl2-induced cellular hypoxia injury in rat H9c2 cells assessed as increase in Nrf2 level at 5 to 10 uM incubated for 24 hrs by Western blot analysis; assay type: functional, cell-based; details: dose 5-10 µM
compound,measurement,setting,value
C=CCSSCCC(=O)O[C@H]1CC[C@]2(C)[C@H]3C[C@@H](O)[C@@H]4[C@@H]([C@]5(C)CC[C@@H](C(C)(C)O)O5)CC[C@@]4(C)[C@]3(C)CC[C@H]2C1(C)C,Activity,H9c2 [1],inactive
same,viability at 1.25 µM,H9c2 [2],85.7%
same,viability at 2.5 µM,H9c2 [3],87.8%
same,viability at 5 µM,H9c2 [4],94.2%
same,Activity,[5],30.7 µM
same,Activity,H9c2 [6],Dose-dependent-effect; Exhibited Highest Release Efficiency Among Tested Compounds
same,Activity,H9c2 [7],Dose-dependent-effect
same,Activity,Rattus norvegicus [8],Active
same,Activity,H9c2 [9],4.74%
same,Activity,H9c2 [10],92.84%
same,Activity,H9c2 [11],61.96%
same,Activity,H9c2 [12],Active
same,Activity,H9c2 [13],Active
same,Activity,H9c2 [14],Active
same,Activity,H9c2 [15],7.54%
same,Activity,H9c2 [16],Active
same,Activity,H9c2 [17],Active
same,inhibition,H9c2 [18],Active
same,inhibition,H9c2 [19],Active
same,Activity,H9c2 [20],inactive
same,Activity,H9c2 [21],Active
same,Activity,H9c2 [22],Active
same,Activity,[23],Active
same,Activity,Rattus norvegicus [24],Active
same,Activity,H9c2 [25],Active
